This note sets out measurements from patent US20230150970A1, “AMINOPYRIMIDINE DERIVATIVES AND THEIR USE AS ARYL HYDROCARBON RECEPTOR MODULATORS” (DONG-A ST CO., LTD., priority 2020, published 2023).

The experiment deals with T1, AhR (Homo sapiens, UniProt P35869).
T1 sequence (P35869 11-848): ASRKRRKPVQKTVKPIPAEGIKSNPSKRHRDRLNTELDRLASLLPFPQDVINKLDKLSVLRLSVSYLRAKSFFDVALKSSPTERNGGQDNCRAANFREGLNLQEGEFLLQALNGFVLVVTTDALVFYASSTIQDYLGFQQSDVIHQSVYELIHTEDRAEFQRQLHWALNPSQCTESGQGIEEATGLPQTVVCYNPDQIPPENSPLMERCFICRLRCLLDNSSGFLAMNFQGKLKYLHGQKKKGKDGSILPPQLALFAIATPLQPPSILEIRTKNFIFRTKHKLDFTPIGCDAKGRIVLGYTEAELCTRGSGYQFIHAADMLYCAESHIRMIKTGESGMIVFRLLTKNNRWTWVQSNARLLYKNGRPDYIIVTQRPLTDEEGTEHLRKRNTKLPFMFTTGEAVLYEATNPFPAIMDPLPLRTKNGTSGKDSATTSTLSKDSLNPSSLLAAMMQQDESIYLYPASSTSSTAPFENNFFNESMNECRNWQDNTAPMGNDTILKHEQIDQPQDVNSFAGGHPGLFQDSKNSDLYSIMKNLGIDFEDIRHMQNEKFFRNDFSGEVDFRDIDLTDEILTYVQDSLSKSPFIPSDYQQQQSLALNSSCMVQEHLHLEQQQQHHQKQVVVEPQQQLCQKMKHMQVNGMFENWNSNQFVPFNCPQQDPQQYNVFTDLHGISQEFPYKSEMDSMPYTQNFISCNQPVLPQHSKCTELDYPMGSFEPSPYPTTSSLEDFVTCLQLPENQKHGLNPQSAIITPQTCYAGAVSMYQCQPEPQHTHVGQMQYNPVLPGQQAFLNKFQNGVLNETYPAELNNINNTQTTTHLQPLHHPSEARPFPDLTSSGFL
Briefly: In Vitro Assay 1: XRE-luciferase reporter assay, antagonism in human cell line (HepG2). To be noted: Assay 1: AhR-Luc Human Antagonism (IC50, nM), values marked *: kynurenine 50 μM, 6 hours. (In general: A reporter such as luciferase makes a cellular process visible.)

A word on the IC50: it is the concentration at which inhibition is half-maximal. A lower IC50 goes with greater potency.

As to `CCC1CN(c2cc(-c3ccc(Cl)cc3)nc(-c3cccnc3)n2)CCN1` (stereo not shown) [Example 109, 4-(4-chlorophenyl)-6-(3-ethylpiperazin-1-yl)-2-(pyridin-3-yl)pyrimidine], the IC50 is greater than 1000 nM. With `CCOC(=O)N1CCN(c2cc(-c3ccc(Cl)cc3)nc(-c3cccnc3)n2)CC1` [Example 110, ethyl 4-(6-(4-chlorophenyl)-2-(pyridin-3-yl)pyrimidin-4-yl)piperazine-1-carboxylate], the IC50 is less than 10 nM.

The compound `O=C(O)C1CN(c2cc(-c3ccc(Cl)cc3)nc(-c3cccnc3)n2)CCN1` (stereo not shown) [Example 111, 4-(6-(4-chlorophenyl)-2-(pyridin-3-yl)pyrimidin-4-yl)piperazine-2-carboxylic acid] registered an IC50 greater than 1000 nM. The figure for `COC(=O)C1CNCCN1c1cc(-c2ccc(Cl)cc2)nc(-c2cccnc2)n1` (stereo not shown) [Example 112, methyl 1-(6-(4-chlorophenyl)-2-(pyridin-3-yl)pyrimidin-4-yl)piperazine-2-carboxylate] is greater than 1000 nM; for `Clc1ccc(-c2cc(N3CCNC[C@@H]3c3ccccc3)nc(-c3cccnc3)n2)cc1` [Example 113, (S)-4-(4-chlorophenyl)-6-(2-phenylpiperazin-1-yl)-2-(pyridin-3-yl)pyrimidine] it is greater than 1000 nM; for `Cc1ccccc1N1CCN(c2cc(-c3ccc(Cl)cc3)nc(-c3cccnc3)n2)CC1` [Example 114, 4-(4-chlorophenyl)-2-(pyridin-3-yl)-6-(4-(o-tolyl)piperazin-1-yl)pyrimidine] it is greater than 1000 nM. In turn, `Cc1ccc(N2CCN(c3cc(-c4ccc(Cl)cc4)nc(-c4cccnc4)n3)CC2)cc1` [Example 115, 4-(4-chlorophenyl)-2-(pyridin-3-yl)-6-(4-(p-tolyl)piperazin-1-yl)pyrimidine] had an IC50 greater than 1000 nM. For `Cc1cccc(N2CCN(c3cc(-c4ccc(Cl)cc4)nc(-c4cccnc4)n3)CC2)c1` [Example 116, 4-(4-chlorophenyl)-2-(pyridin-3-yl)-6-(4-(m-tolyl)piperazin-1-yl)pyrimidine] the value was greater than 1000 nM; for `FC(F)(F)c1cccc(N2CCN(c3cc(-c4ccc(Cl)cc4)nc(-c4cccnc4)n3)CC2)c1` [Example 117, 4-(4-chlorophenyl)-2-(pyridin-3-yl)-6-(4-(3-(trifluoromethyl)phenyl)piperazin-1-yl)pyrimidine], 100 to 1000 nM. The figure for `Clc1ccc(-c2cc(N3CCN(c4ccc(Cl)c(Cl)c4)CC3)nc(-c3cccnc3)n2)cc1` [Example 119, 4-(4-chlorophenyl)-6-(4-(3,4-dichlorophenyl)piperazin-1-yl)-2-(pyridin-3-yl)pyrimidine] is greater than 1000 nM; for `COc1ccc(N2CCN(c3cc(-c4ccc(Cl)cc4)nc(-c4cccnc4)n3)CC2)cc1` [Example 120, 4-(4-chlorophenyl)-6-(4-(4-methoxyphenyl)piperazin-1-yl)-2-(pyridin-3-yl)pyrimidine] it is less than 10 nM; for `O=[N+]([O-])c1ccc(N2CCN(c3cc(-c4ccc(Cl)cc4)nc(-c4cccnc4)n3)CC2)cc1` [Example 121, 4-(4-chlorophenyl)-6-(4-(4-nitrophenyl)piperazin-1-yl)-2-(pyridin-3-yl)pyrimidine] it is greater than 1000 nM. The figure for `CN1CCN(C2CCN(c3cc(-c4ccc(Cl)cc4)nc(-c4cccnc4)n3)C2)CC1` (stereo not shown) [Example 122, 4-(4-chlorophenyl)-6-(3-(4-methylpiperazin-1-yl)pyrrolidin-1-yl)-2-(pyridin-3-yl)pyrimidine] is 10 to 100 nM. The compound `Clc1ccc(-c2cc(N3CCN(C(c4ccccc4)c4ccccc4)CC3)nc(-c3cccnc3)n2)cc1` [Example 123, 4-(4-benzhydrylpiperazin-1-yl)-6-(4-chlorophenyl)-2-(pyridin-3-yl)pyrimidine] returned an IC50 greater than 1000 nM.

For `Clc1ccc(-c2cc(N3CCN(C(c4ccccc4)c4ccc(Cl)cc4)CC3)nc(-c3cccnc3)n2)cc1` (stereo not shown) [Example 124, 4-(4-chlorophenyl)-6-(4-((4-chlorophenyl)(phenyl)methyl)piperazin-1-yl)-2-(pyridin-3-yl)pyrimidine], the concentration for half-maximal inhibition (IC50) is greater than 1000 nM. The figure for `Clc1ccc(-c2cc(N3CCC4(C=Cc5ccccc54)CC3)nc(-c3cccnc3)n2)cc1` [Example 125, 1′-(6-(4-chlorophenyl)-2-(pyridin-3-yl)pyrimidin-4-yl)spiro[indene-1,4′-piperidine]] is 100 to 1000 nM; for `Clc1ccc(-c2cc(NC3CCNC3)nc(-c3cccnc3)n2)cc1` (stereo not shown) [Example 126, 6-(4-chlorophenyl)-2-(pyridin-3-yl)-N-(pyrrolidin-3-yl)pyrimidin-4-amine] it is greater than 1000 nM; for `Clc1ccc(-c2cc(N[C@@H]3CCNC3)nc(-c3cccnc3)n2)cc1` [Example 127, (R)-6-(4-chlorophenyl)-2-(pyridin-3-yl)-N-(pyrrolidin-3-yl)pyrimidin-4-amine] it is greater than 1000 nM. Regarding `Clc1ccc(-c2cc(NC[C@@H]3CCNC3)nc(-c3cccnc3)n2)cc1` [Example 128, (R)-6-(4-chlorophenyl)-2-(pyridin-3-yl)-N-(pyrrolidin-3-ylmethyl)pyrimidin-4-amine], the half-inhibitory concentration (IC50) was greater than 1000 nM. The figure for `Clc1ccc(-c2cc(NCCN3CCCC3)nc(-c3cccnc3)n2)cc1` [Example 129, 6-(4-chlorophenyl)-2-(pyridin-3-yl)-N-(2-(pyrrolidin-1-yl)ethyl)pyrimidin-4-amine] is greater than 1000 nM. Compound `Clc1ccc(-c2cc(NCCCN3CCCC3)nc(-c3cccnc3)n2)cc1` [Example 130, 6-(4-chlorophenyl)-2-(pyridin-3-yl)-N-(3-(pyrrolidin-1-yl)propyl)pyrimidin-4-amine] registered a 50% inhibitory concentration (IC50) greater than 1000 nM. Compound `CN1CCCC1CCNc1cc(-c2ccc(Cl)cc2)nc(-c2cccnc2)n1` (stereo not shown) [Example 131, 6-(4-chlorophenyl)-N-(2-(1-methylpyrrolidin-2-yl)ethyl)-2-(pyridin-3-yl)pyrimidin-4-amine] came in with an IC50 greater than 1000 nM. The figure for `Clc1ccc(-c2cc(NC3CCN(Cc4ccccc4)C3)nc(-c3cccnc3)n2)cc1` (stereo not shown) [Example 132, N-(1-benzylpyrrolidin-3-yl)-6-(4-chlorophenyl)-2-(pyridin-3-yl)pyrimidin-4-amine] is 100 to 1000 nM; for `O[C@@H]1CNC[C@@H]1Nc1cc(-c2ccc(Cl)cc2)nc(-c2cccnc2)n1` [Example 133, (3R,4S)-4-((6-(4-chlorophenyl)-2-(pyridin-3-yl)pyrimidin-4-yl)amino)pyrrolidin-3-ol] it is greater than 1000 nM; for `O[C@H]1CNC[C@H]1Nc1cc(-c2ccc(Cl)cc2)nc(-c2cccnc2)n1` [Example 134, (3S,4R)-4-((6-(4-chlorophenyl)-2-(pyridin-3-yl)pyrimidin-4-yl)amino)pyrrolidin-3-ol] it is greater than 1000 nM. Consider `Clc1ccc(-c2cc(N3CCCC3)nc(-c3cccnc3)n2)cc1` [Example 135, 4-(4-chlorophenyl)-2-(pyridin-3-yl)-6-(pyrrolidin-1-yl)pyrimidine], for which the IC50 was 10 to 100 nM. Take `CC1CCCN1c1cc(-c2ccc(Cl)cc2)nc(-c2cccnc2)n1` (stereo not shown) [Example 136, 4-(4-chlorophenyl)-6-(2-methylpyrrolidin-1-yl)-2-(pyridin-3-yl)pyrimidine]: the IC50 was in the range of 100 to 1000 nM. The figure for `OCC1CCN(c2cc(-c3ccc(Cl)cc3)nc(-c3cccnc3)n2)C1` (stereo not shown) [Example 138, (1-(6-(4-chlorophenyl)-2-(pyridin-3-yl)pyrimidin-4-yl)pyrrolidin-3-yl)methanol] is less than 10 nM; for `F[C@@H]1CCN(c2cc(-c3ccc(Cl)cc3)nc(-c3cccnc3)n2)C1` [Example 139, (R)-4-(4-chlorophenyl)-6-(3-fluoropyrrolidin-1-yl)-2-(pyridin-3-yl)pyrimidine] it is 10 to 100 nM; for `NC1CCN(c2cc(-c3ccc(Cl)cc3)nc(-c3cccnc3)n2)C1` (stereo not shown) [Example 140, 1-(6-(4-chlorophenyl)-2-(pyridin-3-yl)pyrimidin-4-yl)pyrrolidin-3-amine] it is greater than 1000 nM. `CNC1CCN(c2cc(-c3ccc(Cl)cc3)nc(-c3cccnc3)n2)C1` (stereo not shown) [Example 141, 1-(6-(4-chlorophenyl)-2-(pyridin-3-yl)pyrimidin-4-yl)-N-methylpyrrolidin-3-amine]: the IC50 was greater than 1000 nM. For `COC(=O)[C@@H]1CCCN1c1cc(-c2ccc(Cl)cc2)nc(-c2cccnc2)n1` [Example 142, methyl (6-(4-chlorophenyl)-2-(pyridin-3-yl)pyrimidin-4-yl)prolinate] the value was 100 to 1000 nM; for `CC(O)C(C)Nc1cc(-c2ccc(Cl)cc2)nc(-c2cccnc2)n1` (stereo not shown) [Example 145, 3-((6-(4-chlorophenyl)-2-(pyridin-3-yl)pyrimidin-4-yl)amino)butan-2-ol], 100 to 1000 nM.

For the compound `OC[C@@H]1CCCN(c2cc(-c3ccc(Cl)cc3)nc(-c3cccnc3)n2)C1` [Example 147, (R)-(1-(6-(4-chlorophenyl)-2-(pyridin-3-yl)pyrimidin-4-yl)piperidin-3-yl)methanol], the IC50 is less than 10 nM.
